Consider 11 compounds from ChEMBL document CHEMBL1201862, “PubChem BioAssay data set” (2004).

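These data come from cells grown in 96-well plates and exposed to compound for 48 hours at five concentrations. GI50 = concentration required for 50% inhibition of growth.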 The source made the active and inactive calls. Rule as the data show it: active = GI50 up to about 1.1 µM and inactive = higher. Where only a bound is given, the exact number is not on record here.

Holding throughout (assay): NCI-60 cell line screen, 48 h
In assay [1] the test system is SF-295.
In assay [2] the test system is UACC-257.
The subject of assay [3] is HCT-15.
In assay [4] the test system is CAKI-1.
For assay [5], the system named is SN12C.
In assay [6] the test system is K562.
Assay [7] has as its system ACHN.
Assay [8] relates to LOX IMVI.
The test system of assay [9] is CCRF-CEM.
Assay [10] deals with TK-10.
Assay [11] has as its system NCI-H460.
Assay [12] relates to HCT-116.
Assay [13] relates to SNB-19.
Assay [14] has as its system MOLT-4.
For assay [15], the system named is OVCAR-3.
For assay [16], the system named is NCI-H23.
For assay [17], the system named is HOP-62.
In assay [18] the test system is OVCAR-8.
Assay [19] concerns 786-0.
The subject of assay [20] is RXF 393.

With `O=C(CCC(NC(=O)OCc1ccccc1)C(=O)OCc1ccccc1)Nc1cccc(OCc2ccccc2)c1` (configuration not stated), the GI50 in assay [1] is 59.6 µM (inactive); in assay [2] it was 23.7 µM (inactive); in assay [3] it was 18.3 µM; in [4] it was 31.2 µM (inactive); in assay [5] it was 20.2 µM (inactive); in assay [6] it was 24.2 µM (inactive). The GI50 in assay [7] is 29.7 µM (inactive); in [8], 19.3 µM (inactive); in assay [9], 27.3 µM (inactive); in [10], 29.4 µM (inactive); in assay [11] it was 23.6 µM (inactive); in [12] it was 19.2 µM (inactive). For the same compound, the GI50 in assay [13] was 51.3 µM (inactive); in assay [14] it was 26.4 µM (inactive); in assay [15], 22.3 µM (inactive); in [16], 20.3 µM (inactive); in assay [17], 28.6 µM (inactive); in assay [18], 26.5 µM (inactive). For the same compound, the GI50 in assay [19] is 17.7 µM (inactive); in assay [20], 23.8 µM (inactive).
Take `CCN(CC)CCn1nc2c3c(c(NCCN)ccc31)Sc1cc(O)ccc1-2`: the GI50 in [1] is 0.861 µM (active); in assay [2], 1.84 µM (inactive); in assay [3], 3.03 µM; in assay [4], 0.516 µM (active); in [5], 0.372 µM (active); in assay [6] it was 0.314 µM (active). Moreover, the GI50 in assay [7] was 0.579 µM (active); in [8] it was 0.146 µM (active); in [9] it was 0.166 µM (active); in [10] it was 2.22 µM (inactive); in assay [11], 0.0715 µM (active); in [12], 0.327 µM (active). Besides, the GI50 in assay [13] is 0.611 µM (active); in assay [14], 0.0396 µM (active); in assay [15] it was 2.43 µM (inactive); in assay [16] it was 0.451 µM (active); in assay [17], 0.416 µM (active); in [18] it was 0.535 µM (active). Moreover, the GI50 in assay [19] was 0.741 µM (active); in assay [20] it was 1.14 µM (inactive).
For the compound `Nn1c(S)nnc1COc1cccc(OCc2nnc(S)n2N)c1`, the GI50 in assay [1] is > 100 µM (inactive); in assay [2], > 100 µM (inactive); in [3] it was 58.7 µM; in [4], > 100 µM (inactive); in assay [5], > 100 µM (inactive); in assay [6] it was 4.9 µM (inactive). Besides, the GI50 was > 100 µM (inactive) in assay [7]; 32.4 µM (inactive) in [8]; 30.7 µM (inactive) in [9]; > 100 µM (inactive) in assay [10]; 29.7 µM (inactive) in assay [11]; > 100 µM (inactive) in [12]. For the same compound, the GI50 is > 100 µM (inactive) in [13]; 3.13 µM (inactive) in assay [14]; > 100 µM (inactive) in [15]; > 100 µM (inactive) in [16]; > 100 µM (inactive) in [17]; > 100 µM (inactive) in assay [18]. The GI50 was 34.3 µM (inactive) in assay [19] and > 100 µM (inactive) in assay [20].
`CC(C)CNc1nc2ncnc(N)c2[nH]1`: the GI50 was > 100 µM (inactive) in assay [1]; > 100 µM (inactive) in assay [2]; > 100 µM in assay [3]; > 100 µM (inactive) in [4]; > 100 µM (inactive) in [5]; > 100 µM (inactive) in [6]. Besides, the GI50 in assay [7], in assay [8], in [9], in [10], in [11] and in assay [12] was > 100 µM (inactive) throughout. For the same compound, the GI50 in assay [13], in [14], in assay [15], in [16], in [17] and in assay [18] was > 100 µM (inactive) throughout. For the same compound, the GI50 in assay [19] and in assay [20] was > 100 µM (inactive) in each case.
On to `CC12C3C4C1C1C2C3C41CO` (configuration not stated), for which the GI50 in assay [1] is > 100 µM (inactive); in [2] it was > 100 µM (inactive); in [3], > 100 µM; in assay [4] it was > 100 µM (inactive); in assay [5], > 100 µM (inactive); in [6], > 100 µM (inactive). Besides, the GI50 in assay [7], in assay [8], in assay [9], in assay [10], in assay [11] and in assay [12] was > 100 µM (inactive) in each case. The GI50 in assay [13], in assay [14], in [15], in [18], in [19] and in [20] was > 100 µM (inactive) throughout.
Turning to `COc1ccc2c(Cc3c4ccccc4cc4ccccc34)cncc2c1O`, the GI50 in [1] is 1.55 µM (inactive); in assay [2] it was 2.32 µM (inactive); in assay [3] it was 1.15 µM; in assay [4], 4.15 µM (inactive); in assay [5], 5.01 µM (inactive); in assay [6] it was 0.655 µM (active). For the same compound, the GI50 in assay [7] was 2.14 µM (inactive); in assay [8] it was 0.394 µM (active); in [9], 0.36 µM (active); in [10], 3.94 µM (inactive); in assay [11], 1.45 µM (inactive); in assay [12], 1.48 µM (inactive). The GI50 was 2.08 µM (inactive) in assay [13]; 2.68 µM (inactive) in assay [14]; 1.98 µM (inactive) in assay [15]; 2.37 µM (inactive) in assay [16]; 4.11 µM (inactive) in assay [17]; 1.1 µM (active) in assay [18]. Further, the GI50 in assay [19] is 4.21 µM (inactive); in assay [20], 3.4 µM (inactive).
`O=C(O)C(=C\c1ccc2c(c1)OCO2)/C(=C/c1ccc2c(c1)OCO2)C(=O)O`: the GI50 in [1] is > 100 µM (inactive); in assay [2], > 100 µM (inactive); in [3], > 100 µM; in assay [4], > 100 µM (inactive); in [5] it was > 100 µM (inactive); in assay [6] it was > 100 µM (inactive). The GI50 in assay [8], in assay [9], in assay [10], in assay [11], in assay [12] and in assay [13] was > 100 µM (inactive) in each case. In addition, the GI50 in assay [14], in assay [15], in assay [16], in assay [17], in assay [18] and in [20] was > 100 µM (inactive) throughout.
Consider `COc1ccc(CC2COc3cc(O)cc(O)c3C2=O)cc1O` (configuration not stated), for which the GI50 was 4.3 µM (inactive) in assay [1]; > 100 µM (inactive) in assay [2]; 3.16 µM in [3]; 4.88 µM (inactive) in [4]; 8.34 µM (inactive) in [5]; 3.13 µM (inactive) in [6]. Also, the GI50 in assay [7] is 24.4 µM (inactive); in assay [8], 8.83 µM (inactive); in assay [9] it was 3.4 µM (inactive); in [10], 15.4 µM (inactive); in assay [11] it was 6.15 µM (inactive); in assay [13], 4.83 µM (inactive). Besides, the GI50 in assay [14] is 4.3 µM (inactive); in assay [15], 2.3 µM (inactive); in assay [16], 16.6 µM (inactive); in assay [17] it was 5.13 µM (inactive); in assay [18], 11.9 µM (inactive); in assay [19], 9.75 µM (inactive). In assay [20], the GI50 is 24.5 µM (inactive).
For the compound `FC(F)(F)c1ccc(/N=N/N2CCCC2)cc1`, the GI50 in assay [1] was > 100 µM (inactive); in assay [2] it was > 100 µM (inactive); in assay [3] it was > 100 µM; in assay [4] it was > 100 µM (inactive); in assay [5] it was > 100 µM (inactive); in assay [6], > 100 µM (inactive). The GI50 in assay [7] was > 100 µM (inactive); in [8], > 100 µM (inactive); in assay [9], > 100 µM (inactive); in [10], > 100 µM (inactive); in assay [11] it was 63 µM (inactive); in assay [12], > 100 µM (inactive). For the same compound, the GI50 is > 100 µM (inactive) in assay [13]; > 100 µM (inactive) in assay [14]; > 100 µM (inactive) in assay [15]; 65.8 µM (inactive) in [16]; > 100 µM (inactive) in assay [17]; > 100 µM (inactive) in [19]. Also, the GI50 in assay [20] is > 100 µM (inactive).
Regarding `COc1ccc2c(c1)OC[C@@H]1c3cc(O)c(OCc4ccccc4)cc3O[C@H]21`, the GI50 in assay [1] is 28.8 µM (inactive); in [2], 17.9 µM (inactive); in [3] it was 22 µM; in [4] it was 24.1 µM (inactive); in assay [6], 31.8 µM (inactive); in [7] it was 22.9 µM (inactive). The GI50 was 30 µM (inactive) in assay [8]; 34.3 µM (inactive) in [9]; 32.7 µM (inactive) in [10]; 17.3 µM (inactive) in [11]; 29.9 µM (inactive) in [12]; 46.8 µM (inactive) in [13]. Besides, the GI50 was 29.5 µM (inactive) in assay [14]; 38 µM (inactive) in assay [15]; 16.4 µM (inactive) in assay [16]; 48 µM (inactive) in assay [17]; 29.5 µM (inactive) in assay [18]; 37.3 µM (inactive) in assay [19]. Besides, in assay [20], the GI50 was 25.9 µM (inactive).
With `CC1=NC(=O)CNN1C1=NNC2(C(=O)N1)c1ccccc1-c1ccccc12`, the GI50 in assay [1] is > 100 µM (inactive); in assay [2], > 100 µM (inactive); in assay [3], > 100 µM; in [4], > 100 µM (inactive); in assay [5], > 100 µM (inactive); in [6], > 100 µM (inactive). The GI50 in assay [7], in assay [8], in [9], in assay [10], in assay [11] and in assay [12] was > 100 µM (inactive) throughout. Further, the GI50 in [13], in assay [15], in [16], in assay [17], in assay [18] and in assay [19] was > 100 µM (inactive) throughout. Moreover, the GI50 in [20] is > 100 µM (inactive).
